Measured values reported in patent US11707453B2, “Treatment of unipolar depressive disorder” (OXFORD UNIVERSITY INNOVATION LIMITED, priority 2017, dated 2023).

Tests used:
5-HT2A receptor [1] = assay: DOI-evoked head-twitch (HTR) and ear scratch (ESR) behavioural responses; type: in vivo, mice; conditions: for DOI-evoked ESR / DOI-evoked HTR: vs DOI alone
5-HT2A receptor [2] = assay: DOI-evoked IEG (c-fos, Arc, egr2 mRNA) expression, in situ hybridization; type: in vivo, mice
Method: In separate molecular studies, central 5-HT2A receptor function was assessed by measuring DOI-induced mRNA expression of the IEG c-fos, as well as complementary IEGs Arc and egr2 in cortical regions (Gonzalez-Maeso et al., 2007; Jennings et al., 2008). The challenge dose of DOI (2 mg kg^−1 i.p.) was selected on the basis of preliminary dose response studies and evidence that DOI-evoked IEG expression was blocked by a selective 5-HT2A receptor antagonist (Jennings et al., 2008).
Mice were randomly allocated to one of the following treatments (6 mice per group); i) acute ebselen (10 mg kg^−1 i.p.) or vehicle, ii) repeated lithium (3 days; 10 mmol kg^−1 i.p. on day 1, 3 mmol kg^−1 i.p. twice daily on days 2-3) or vehicle. Drug doses and pre-treatment times were selected as noted above; ebselen (1 h), lithium (18 h). Groups of mice were acclimatised to a procedure room for 4 h prior to each experiment. […]
c-Fos, Arc and egr2 mRNA was measured on tissue sections using in situ hybridization (Jennings et al., 2008). […]
Optical density measurements were obtained from the autoradiograms using computer-based image analysis (MCID software). Optical density readings were converted in nCi g^−1 of tissue by calibration with the use of [^14C] microscales, which were co-exposed with the slides. […]

brain extracellular 5-HT = assay: Microdialysis, extracellular 5-HT in hippocampus; type: in vivo, mice
Method: The microdialysis probe was connected to a perfusion pump (CMA/100, CMA Microdialysis Ltd.) and perfused (2 μl min^−1) continuously with artificial CSF (140 mM NaCl, 3 mM KCl, 1.2 mM Na2HPO4, 0.27 mM NaH2PO4, 1 mM MgCl2, 2.4 mM CaCl2 and 7.2 mM glucose). After 2 h perfusate samples were collected every 20 min and analysed immediately by HPLC with electrochemical detection (see below).
Once 3 consecutive baseline samples were stable, mice received a single injection of ebselen (10 mg kg^−1 i.p.) or vehicle. Citalopram (5 mg kg^−1 i.p.) was administered 1 h later and dialysates were collected for a further 2 h. At the end of each experiment, brains were removed and probe placement was confirmed by histological examination.
(§1) Both mcrodialysates (20 μl) and brain tissue supernatants (50 μl) were analysed by an HPLC system, comprising a silica-based, reversed phase column (3.0 μm ODS2, 4.6 mm×100 mm, Waters Ltd) coupled to an electrochemical detector (glass carbon working electrode versus Ag/AgCl reference; LC-4C, Bioanalytical systems). For microdialysates, analytes were separated at room temperature by an isocratic mobile phase comprising 12.5% (v/v) methanol, 0.13 M NaHPO4.H2O, 0.025 mM octane sulphonic acid, 0.85 mM EDTA and 2 mM NaCl at pH 3.5, and with the working electrode set at +0.7 V.

[3] = system: 5-HT2A receptor binding sites; assay: Receptor autoradiography, [3H]-ketanserin binding sites in frontal cortex after treatment; type: in vivo, mouse
Method: The effect of ebselen and lithium treatment on the abundance of cortical 5-HT2A receptor binding sites was measured using receptor autoradiography. Mice were randomly allocated to one of the following treatments (6 mice per group); i) acute ebselen (10 mg kg^−1 i.p.) or vehicle, ii) repeated ebselen (10 mg kg^−1 i.p., twice daily for 7 days; last injection morning of the 8th day) or vehicle, and iii) repeated lithium (7 days; 10 mmol kg^−1 i.p. on day 1, 3 mmol kg^−1 i.p. twice daily on days 2-7) or vehicle.
Tissue sections (12 μm) were cryostat-cut at the level of the frontal cortex and stored in −80° C. On the day of the experiment, sections were incubated (at room temperature) in Tris-HCl buffer (0.17 M, pH 7.7) for 20 min, and then for 2 h with either 2 nM [^3H]-ketanserin (PerkinElmer) to determine total binding, or 2 nM [^3H]-ketanserin plus 10 μM methysergide to determine non-specific binding. Sections were then washed twice for 10 min with ice-cold 4° C. Tris-HCl buffer (0.17 M, pH 7.7), followed by double deionised water. Finally, slides were air-dried overnight before being exposed to autoradiographic films (BioMax MR, Kodak) for 12 weeks.
Optical density measurements were obtained from the autoradiograms as described above. […] Specific binding was calculated by subtracting non-specific binding from total binding. […]

[4] = Tissue levels of 5-HT, 5-HIAA and tryptophan; type: in vivo, mouse; conditions: 1 h post-drug
Method: (§2) The level of 5-HT synthesis in frontal cortex and hippocampus was obtained by measuring the accumulation of 5-HTP following inhibition of aromatic amino acid decarboxylase. Mice (n=6 per group) were administered ebselen (0.5, 1 or 5 mg kg^−1 i.p.) or vehicle and 1 h later animals were injected with the aromatic amino acid decarboxylase inhibitor NSD1015 (100 mg kg^−1 i.p.). Mice were then culled by cervical dislocation 30 min following NSD1015 and brain tissue was removed and stored at −80° C. Separate experiments measured levels of 5-HT, 5-HIAA and tryptophan in cortex and hippocampus. Mice (n=6 per group) were administered ebselen (0.5, 1 or 5 mg kg^−1 i.p.) or vehicle and then culled by cervical dislocation 1 h post-drug. Brain tissue was dissected out and stored at −80° C. prior to neurochemical analysis.
(§3) On the day of neurochemical analysis, tissue pieces (˜20 mg) of frozen frontal cortex and hippocampus were placed in Eppendorf tubes containing 500 μl perchloric acid (0.09 M) and homogenised using a polytron kinetic homogeniser (15000 rpm for 10 sec). Tissue homogenates were then centrifuged (1000 rpm for 10 min) and the supernatant was transferred in a new Eppendorf tube, protected from light, and kept on ice before analysis using HPLC with electrochemical detection (see below).
as §1
(§4) For measurement of 5-HT, 5-HIAA and tryptophan in brain tissue supernatants, analytes were separated at room temperature by an isocratic mobile phase comprising an isocratic mix of 15% (v/v) methanol, 2 mM 1-octanesulphonic acid, 0.12 M NaHPO4.H2O, 2 mM NaCl, and 0.1 mM EDTA at pH 3.7 with the working electrode set at +0.85V. For measurement of 5-HTP the mobile phase was adjusted to pH 3.4.

5-HT2A receptor [5] = assay: Psilocin-evoked head-twitch response (HTR); type: in vivo, mice; conditions: ebselen pretreatment; psilocin 2 mg kg^-1 i.p.
5-HT synthesis = 5-HT synthesis (5-HTP accumulation after NSD1015); type: in vivo, mouse
Method: as §2, §3, §1, §4

[6] = reported in WO 2012/107735; cited from earlier work
[7] = clinical trials for ischemic stroke (Yamaguchi et al 1998); cited from earlier work
[8] = rats; cited from earlier work
[9] = AR-A014418 10 or 20 mg kg^-1 i.p. pretreatment
[10] = L-690,330 150 or 240 mg kg^-1 i.p. pretreatment
[11] = acute ebselen 1, 5 or 10 mg kg^-1 i.p., DOI 2 mg kg^-1 i.p.
[12] = repeated ebselen 10 mg kg^-1 i.p. for 7 days

SMILES: COc1ccc(CNC(=O)Nc2ncc([N+](=O)[O-])s2)cc1 [AR-A014418, N-[(4-methoxyphenyl)methyl]-N′-(5-nitro-2-thiazolyl) urea, reference compound]
- DOI-induced ESR (5-HT2A receptor [1]; [9]): did not affect
- DOI-induced HTR (5-HT2A receptor [1]; [9]): did not affect

SMILES: COc1cc(CC(C)N)c(OC)cc1I (stereo not shown) [DOI, 1-(2,5-dimethoxy-4-iodophenyl)-propan-2-amine, reference compound]
- Increase in IEG mRNA above vehicle-injected controls (5-HT2A receptor [2]; DOI 2 mg kg^-1 i.p., selected brain regions): 50-200%

SMILES: CC(Oc1ccc(O)cc1)(P(=O)(O)O)P(=O)(O)O [L-690,330, [1-(4-hydroxyphenoxy)ethylidene]bisphosphonic acid, reference compound]
- DOI-evoked ESR (5-HT2A receptor [1]; [10]): decreased
- DOI-evoked HTR (5-HT2A receptor [1]; [10]): decreased

SMILES: CN(C)CCCC1(c2ccc(F)cc2)OCc2cc(C#N)ccc21 (stereo not shown) [citalopram, reference compound]
- Peak increase of 5-HT in hippocampal microdialysates above pre-drug values (brain extracellular 5-HT; citalopram 5 mg kg^-1 i.p., 60 min post injection, awake mice): approximately 450%

SMILES: O=c1c2ccccc2[se]n1-c1ccccc1 [Ebselen, 2-phenyl-1,2-benzisoselenazol-3(2H)-one]
- [^3H]-Ketanserin binding sites ([3]; acute ebselen 10 mg kg^-1 i.p. (2h), vehicle 4.33 ± 0.66): 3.36 ± 0.38 nCi g^-1 of tissue
- [^3H]-Ketanserin binding sites ([3]; repeated ebselen 10 mg kg^-1 i.p. (7 days), vehicle 6.60 ± 0.27): 6.12 ± 0.63 nCi g^-1 of tissue
- IEG responses to DOI (Arc, c-fos, egr-2 mRNA) (5-HT2A receptor [2]; ebselen 10 mg kg^-1 i.p., cingulate and somatosensory cortex (Arc, c-fos), caudate nucleus and endopiriform cortex (egr-2)): attenuated
- 5-HIAA Cortex ([4]; ebselen 0.5 mg kg^-1 i.p.): 83.3 ± 14.4 % of vehicle
- 5-HIAA Hippocampus ([4]; ebselen 0.5 mg kg^-1 i.p.): 129.8 ± 12.9 % of vehicle
- 5-HT Cortex ([4]; ebselen 0.5 mg kg^-1 i.p.): 158.1 ± 14.7 % of vehicle
- 5-HT Hippocampus ([4]; ebselen 0.5 mg kg^-1 i.p.): 234.4 ± 23.9 % of vehicle
- Tryptophan Cortex ([4]; ebselen 0.5 mg kg^-1 i.p.): 105.0 ± 10.3 % of vehicle
- Tryptophan Hippocampus ([4]; ebselen 0.5 mg kg^-1 i.p.): 210.2 ± 35.1 % of vehicle
- 5-HIAA Cortex ([4]; ebselen 1 mg kg^-1 i.p.): 75.9 ± 6.3 % of vehicle
- 5-HIAA Hippocampus ([4]; ebselen 1 mg kg^-1 i.p.): 141.0 ± 9.5 % of vehicle
- 5-HT Cortex ([4]; ebselen 1 mg kg^-1 i.p.): 148.6 ± 11.2 % of vehicle
- 5-HT Hippocampus ([4]; ebselen 1 mg kg^-1 i.p.): 225.9 ± 14.3 % of vehicle
- Tryptophan Cortex ([4]; ebselen 1 mg kg^-1 i.p.): 122.7 ± 20.6 % of vehicle
- Tryptophan Hippocampus ([4]; ebselen 1 mg kg^-1 i.p.): 128.5 ± 13.6 % of vehicle
- 5-HIAA Cortex ([4]; ebselen 5 mg kg^-1 i.p.): 88.7 ± 3.8 % of vehicle
- 5-HIAA Hippocampus ([4]; ebselen 5 mg kg^-1 i.p.): 139.2 ± 17.0 % of vehicle
- 5-HT Cortex ([4]; ebselen 5 mg kg^-1 i.p.): 130.9 ± 4.8 % of vehicle
- 5-HT Hippocampus ([4]; ebselen 5 mg kg^-1 i.p.): 189.4 ± 21.4 % of vehicle
- Tryptophan Cortex ([4]; ebselen 5 mg kg^-1 i.p.): 131.9 ± 14.5 % of vehicle
- Tryptophan Hippocampus ([4]; ebselen 5 mg kg^-1 i.p.): 135.4 ± 17.2 % of vehicle
- Psilocin-induced HTR (5-HT2A receptor [5]): decreased
- Effect of citalopram on extracellular 5-HT after ebselen pretreatment (brain extracellular 5-HT; ebselen 10 mg kg^-1 i.p. 1 h before citalopram 5 mg kg^-1 i.p., greatest effect 20-40 min post citalopram): enhanced
- Extracellular 5-HT, ebselen alone (brain extracellular 5-HT; ebselen 10 mg kg^-1 i.p., vs vehicle-injected controls): no effect
- 5-HTP Cortex (5-HT synthesis; ebselen 0.5 mg kg^-1 i.p.): 109.7 ± 10.6 % of vehicle
- 5-HTP Hippocampus (5-HT synthesis; ebselen 0.5 mg kg^-1 i.p.): 87.9 ± 14.6 % of vehicle
- 5-HTP Cortex (5-HT synthesis; ebselen 1 mg kg^-1 i.p.): 100.4 ± 3.7 % of vehicle
- 5-HTP Hippocampus (5-HT synthesis; ebselen 1 mg kg^-1 i.p.): 95.6 ± 6.5 % of vehicle
- 5-HTP Cortex (5-HT synthesis; ebselen 5 mg kg^-1 i.p.): 202.5 ± 15.0 % of vehicle
- 5-HTP Hippocampus (5-HT synthesis; ebselen 5 mg kg^-1 i.p.): 152.6 ± 9.0 % of vehicle
- Transfer across the blood/brain barrier [6]: capable of transferring across the blood/brain barrier
- Toxicity in humans at pharmaceutically effective dosages [7]: sufficiently non-toxic
- DOI-evoked ESR (5-HT2A receptor [1]; [11]): dose-related decrease
- DOI-evoked HTR (5-HT2A receptor [1]; [11]): dose-related decrease
- Inhibitory effect on DOI-evoked ESR (5-HT2A receptor [1]; [12]): persisted
- Inhibitory effect on DOI-evoked HTR (5-HT2A receptor [1]; [12]): persisted
- LD50 [8]: greater than 1000 mg/kg
